Reference: PMC6017909, “Synthesis and Evaluation of the Tumor Cell Growth Inhibitory Potential of New Putative HSP90 Inhibitors” (Molecules : A Journal of Synthetic Chemistry and Natural …, 2018)

Legend:
HSP90 = molecular target: T1, HSP90 (Homo sapiens, UniProt P07900); experiment: HSP90 binding, fluorescence polarization with GM-FITC; conditions: displacement of GM-FITC 5 nM, 30 nM HSP90, 4 °C, 4 h; read-out: Binding HSP90 (FP) IC50
T1 construct: purchased Stressgen SPP-776
Protocol: GM-FITC Geldanamycin-fluorescein-5-isothiocyanate (working concentration: 1–400 nM), supplied by Invivogen (06C23-MT, San Diego, CA, USA), was previously dissolved in DMSO to obtain 10 mM stock solutions and kept at −20 °C until use. […] The compounds were previously dissolved in DMSO to obtain stock solutions and kept at −20 °C. The day of experiment, the compounds were prepared by serial dilutions in assay buffer (HFB) containing 20 mM HEPES (K) pH 7.3, 50 mM KCl, 5 mM MgCl2, 20 mM Na2MoO4 and 0.01% NP40. Before each use, 0.1 mg/mL Bovine Gamma globulin and 2 mM DTT were freshly added. […] The plate was mixed on a shaker at 4 °C for 4 h, and the FP values in mP (millipolarization units) were recorded. […] Curve fitting was performed using Prism GraphPad software program (GraphPad software, Inc., San Diego, CA, USA).

AGS = experiment: Sulforhodamine B (SRB) cell growth inhibition assay; assay type: cell-based; conditions: Homo sapiens, 48 h treatment
Protocol: (§1) The following human tumor cell lines were used and maintained in RPMI-1640 medium with UltraGlutamine I and 25 mM Hepes (Lonza, Basel, Switzerland), supplemented with 5% FBS (Biowest): NCI-H460 (non-small cell lung adenocarcinoma), AGS (gastric adenocarcinoma) and MCF-7 (breast adenocarcinoma). The HFF-1 cell line (human foreskin fibroblasts) was cultured in DMEM High Glucose with L-Glutamine supplemented with 15% FBS. All cell lines were routinely maintained at 37 °C in a humidified incubator with 5% CO2. Cell number and viability were determined with the trypan blue exclusion assay. All the experiments were performed with exponentially growing cells presenting more than 90% cell viability.
(§2) The growth inhibitory effect of the compounds was assessed using the Sulforhodamine B (SRB) assay as previously described. Briefly, cells were plated into 96-well plates (5000 cells/well for MCF-7 and NCI-H460 cells and 7500 cells/well for AGS cells) and incubated for 24 h to adhere. Serial dilutions of the different compounds (ranging from 0 to 150 μM or from 0 to 50 μM) were then added to the cells. Cells were further incubated for 48 h. Following this period (or at the time the compound is added, T0), plates were fixed with 10% ice-cold trichloroacetic acid. Following staining with 0.4% SRB, plates were washed with 1% acetic acid and the bound dye solubilized with 10 mM Tris-Base. […] For the HFF-1 cell line, cells (15,000 cells/well) were plated into 96-well plates, allowed to adhere for 24 h and treated with the GI50 concentration of each compound for seven days. After this period, the SRB assay was carried out as described above. The effect of the maximum concentration of vehicle (solvent) of the compounds (H2O: 0.31% for compound 8 and 0.19% for compound 13) was also analyzed in each assay.

MCF7 = experiment: as above; assay type: cell-based; conditions: Homo sapiens, 48 h treatment
Protocol: as §1, §2

NCI-H460 [1] = experiment: as above; assay type: cell-based; conditions: Homo sapiens, 48 h treatment
Protocol: as §1, §2

NCI-H460 [2] = experiment: Cell-counting assay, 72-h drug exposure; assay type: cell-based; conditions: Homo sapiens, read-out: Cell Growth Inhibitory Activity NCI-H460 IC50 72 h
Text: For the cytotoxic activity studies and determination of GI50 concentrations in three different tumor cell lines, the cell culture conditions are described in Section 3.5. For the studies on the effect on % viable cells, cell cycle, cellular proliferation, and apoptosis, culture conditions are described in Section 3.6.1. For the remaining studies, the epithelial carcinoma cell line A431 and the non-small cell lung carcinoma cell line NCI-H460 were routinely grown in RPMI 1640 (Lonza, Vierviers, Belgium), supplemented with 10% (v/v) heat-inactivated fetal bovine serum (FBS, GIBCO, Invitrogen, Paisley, UK). The human peritoneal mesothelioma cell line STO was kindly provided by Dr. N. Zaffaroni (IRCCS Istituto Nazionale Tumori, Milan, Italy) and grown in 50/50 DMEM-Ham’s F12 medium (Lonza, Vierviers, Belgium), supplemented with 10% (v/v) heat-inactivated foetal bovine serum and 2 mM L-glutamine (L-Gln). All cell lines were maintained at 37 °C in a 5%/95% CO2/air atmosphere. All the compounds tested were freshly prepared by dissolving powder in dimethylsulfoxide (DMSO) (BDH Prolabo, Milan, Italy) and following dilution in culture medium. Cells were incubated with drugs for 48 h or 72 h (unless otherwise stated) at 37 °C in culture medium supplemented with 10% (v/v) heat-inactivated FBS; drug concentrations used for each assay and duration of treatments are reported in Legends to Figures.
Cellular sensitivity to drugs was evaluated by a cell-counting assay after 72-h drug exposure. Cells in the logarithmic phase of growth were seeded in duplicate into 6-well plates. Twenty-four hours after seeding, the drug was added to the medium. Cells were harvested 72 h after drug exposure and counted with a cell counter.

[3] = tested on: A431 squamous cell carcinoma xenografts; experiment: Tumor growth of xenografted mouse model; assay type: in vivo, nude mice
Protocol: Experiments were carried out using female athymic Swiss nude mice, 8–10 weeks old (Charles River, Calco, Italy). Mice were maintained in laminar flow rooms keeping temperature and humidity constant. Mice had free access to food and water. Experiments were approved by the Ethics Committee for Animal Experimentation of the Istituto Nazionale Tumori of Milan according to institutional guidelines. Epidermoid carcinoma cells, A-431 suspended in culture media were subcutaneously injected on the back of mice. When tumors were just palpable, the mice were randomly divided into two groups: control and compound-treated. Each group was constituted by 8 mice. Saline (0.9% NaCl) or compound solution (5 or 10 mg/kg, respectively) was i.p. administered daily during 3 weeks, to both groups. Tumor volume was assessed using calipers and determined according to the formula (d)^2xD/2.

| IC50 (HSP90) [µM] | Compound | GI50 (AGS) [µM] | GI50 (MCF7) [µM] | GI50 (NCI-H460 [1]) [µM] | IC50 (NCI-H460 [2]) [µM] | Inhibition of tumor growth vs control group ([3]; 5 mg/kg i.p. daily for three weeks) | Inhibition of tumor growth vs control group ([3]; 10 mg/kg i.p. daily for three weeks) | Manifestations of toxicity (death and body weight loss) ([3]; 5 and 10 mg/kg i.p., three weeks) |
| --- | --- | --- | --- | --- | --- | --- | --- | --- |
| 3.7 ± 0.03 | O=c1c2ccccc2sc2c[n+](Cc3ccccc3)ccc12.[Br-] [Compound 8, 2-Benzyl-5-oxo-5H-thiochromeno[2,3-c]pyridin-2-ium bromide] | 3.1 ± 0.3 | 3.2 ± 0.1 | 3.2 ± 0.1 |  |  |  |  |
|  | O=c1c2ccccc2oc2c[n+](Cc3ccccc3)ccc12.[Br-] [Compound 5, 2-Benzyl-10-oxo-10H-9-oxa-2-azonia-anthracene bromide] | 6.9 ± 1.2 | 5.4 ± 0.6 | 5.2 ± 1.2 | 4.8 ± 0.1 | considerable inhibition of tumor growth | accentuated this difference to statistically significant values | no evident manifestations of toxicity |
